Results reported in patent publication US20190038711A1, “Medicament For Treating Pulmonary Tuberculosis” (Shandong Zhonghai Pharmaceutical CO. LTD, priority 2016, published 2019).

Test system: airway hyperresponsiveness
Assay: Experiment on airway hyperresponsiveness (late-phase airway response, APTI)
Type: in vivo
Settings: sensitized mice, acetylcholine 50 μg/kg i.v.; medicament 1 g three times a day intragastric for 17 days; dexamethasone 0.5 ml/kg i.p. daily
Experimental: According to the Above Embodiments 13-18, an Experiment on Airway Hyperresponsiveness was Conducted, with an Experimental Method and Effects being Shown Below:
(1) mice for the experiment: the male mice for this experiment were 6 weeks old;
(2) dose: the dose for each mouse was 3 g/day, 3 times a day;
(3) antigen sensitization, allergy attack and treatment: 200 μg of conalbumin (CA) and 2 mg of dinitrobenzene (DNP)-bound albumin were dissolved in 0.3 ml of buffer solution PBS and then […] injected into mice for sensitization twice at an interval of one week. The mice were anesthetized 7 days later after the second sensitization, and were intratracheally provided with 0.05 ml of buffer solution PBS containing 100 μg of conalbumin (CA) to induce an allergy attack. On the 20th day and the 30th day, a further allergy attack was induced by the same method at twice dose. The mice having an allergy attack were divided into 9 groups 24 hours later after the first allergy attack. […]
(4) measurement of late-phase airway response: on the third day after the last allergy attack, the mice of the above 8 groups were intravenously injected with acetylcholine, and then the airway pressure changes of these mice and those of group 9 were all measured to reflect airway responses. […]

For `C[C@@H]1C[C@H]2[C@@H]3CCC4=CC(=O)C=C[C@]4(C)[C@@]3(F)[C@@H](O)C[C@]2(C)[C@@]1(O)C(=O)CO` [dexamethasone], the “APTI (airway pressure-time index)” value was 565 ± 31 centimeter water column per second.
